Where no end group is shown, it is not given here. [ ]: non-standard residue; d: D form. Hyp = O=C(O)[C@@H]1C[C@@H](O)CN1; Imid = not defined here
Each compound was assayed on PAR-2 (assay: Inhibition of PAR-2 activating peptide (AP2) calcium signaling in cells pretreated with antagonist). Details: mimetic antagonists; AUC of calcium mobilization treated/control; initially screened at 1 mM compound.
Assay type: cell-based, human
Set-up: key to PAR-2 AP2 Signaling Treated/Control (T/C) / PAR-2 AP2 Signaling Treated/Control: AUC of calcium mobilization, treated ÷ control wells
Protocol: In order to assess the potential of peptides and molecules selected above to block PAR-2 signaling, cells were pretreated with potential antagonist peptides for a predetermined amount of time and were subsequently treated with various GPCR agonists. Confluent Lewis lung carcinoma (LLC) cells were loaded for 30-60 minutes with the fluorescent dye Fluo-4. Final concentration 4 uM Fluo-4, 0.02% pluronic acid in physiological buffer. Cells were then washed with assay buffer, (HBSS containing 1 mM CaCl2, 1 mM MgSO4, and 2.5 mM probenecid). Cells were stimulated with various doses of PAR-2 activating peptide, PAR-1 activating peptide or ATP. Fluorescence was monitored using a Wallac 1470 fluorescent plate reader. (See Al-ani et. al Journal of Pharmacology and Experimental Therapeutics 290:2, 753-760). Additional compound screening was performed using U87-MG human glioma cells. In this assay cells were labeled with FLIPR Calcium 3 dye (Component A), which was dissolved in 10 mls of Assay Buffer without Probenecid. Loading buffer was prepared by diluting Component A with an additional 90 mls of Assay Buffer without Probenecid, giving a total volume of a 100 ml. For plate loading, 11 mls of FLIPR Calcium 3 dye (Component A) is placed into a 15 ml conical tube+110 μl of 250 mM Probenecid, at a final in-well working volume of 2.5 mM. Finally, 50 μl of Calcium 3 dye was added wells containing 100 μl media, and incubated 1 hr, 37° C., 5% CO2. Calcium signaling was then measured using a Flexstation II (Molecular Devices) following manufacturer's instructions.
Potential antagonist compounds were initially screened at 1 mM compound concentration. Those compounds with activity were then subjected to additional confirmatory testing. Activity is reported as treated/controlled (T/C) where the area under the curve (AUC) of calcium mobilization plots in treated wells is divided by the AUC of calcium mobilization plots in control wells to generate a measure of inhibition.

Q: `N=C(N)NCCCCCC(=O)N1CCN(C(=O)Cc2ccccc2)CC1` [ENMD-1077, 4-phenylacetoyl-piperazin-1-(5′-carbamoyl-pentylguanidine)] was tested. Which “PAR-2 AP2 Signaling Treated/Control” value did it give?
A: The value was 0.80.

Q: `NCCCCC(=O)Nc1ccc(C(=O)NCC2CCCCC2)cc1` [ENMD-1568, 4-(5-aminopentanamide)-N-(cyclohexylmethyl)-benzamide] was tested. Which “PAR-2 AP2 Signaling Treated/Control” value did it give?
A: The value was 0.92.

Q: `COC(=O)CCCCC(=O)N1CCN(C(=O)CC(C)C)CC1` [ENMD-1402, Methyl 6-(4-(3-methylbutanoyl)piperazin-1-yl)-6-oxohexanoate] was tested. Which “PAR-2 AP2 Signaling Treated/Control” value did it give?
A: Its value is 0.64.

Q: How did the “PAR-2 AP2 Signaling Treated/Control” value turn out when `CC(C)CNC(=O)[C@@H]1CC[C@@H](NC(=O)CCCCCN)C1` [ENMD-1504, N-isobutyl-3R-(6-aminohexanamido)-cyclopentane-1R-carboxamide] was run?
A: Its value is 0.71.

Q: How did the “PAR-2 AP2 Signaling Treated/Control” value turn out when `CC(C)CNC(=O)c1ccc(-c2ccc(NC(=O)CCCCCN)cc2)cc1` [ENMD-1527, 4′-(6-amino-hexanoylamino)-biphenyl-4-carboxylic acid isobutyl-amide] was run?
A: The value was 0.64.

Q: How did the “PAR-2 AP2 Signaling Treated/Control” value turn out when `CC(C)CC(=O)N1CCOC(C(=O)NCCCCCCN)C1` (stereo not drawn) [ENMD-1522, 4-(3-Methyl-butyryl)-morpholine-2-carboxylic acid (6-amino-hexyl)-amide] was run?
A: The value was 1.00.

Q: Which “PAR-2 AP2 Signaling Treated/Control” value does the source give for `CC(C)CNc1nc2ccc(C(=O)NCCCCCCN)cc2[nH]1` [ENMD-1525, 2-Isobutylamino-3H-benzoimidazole-5-carboxylic acid (6-amino-hexyl)-amide] here?
A: Its value is 0.52.

Q: `Cl.N[C@H]1CC[C@@H](C(=O)N2CCN(C(=O)CC3CCCCC3)CC2)CC1` [ENMD-1781, N^1-2-cyclohexylethanoyl-N-4-cis-4-amino-cyclohexane-carbonyl piperazine hydrochloride] was tested. Which “PAR-2 AP2 Signaling Treated/Control” value did it give?
A: The value was 0.71.

Q: Which “PAR-2 AP2 Signaling Treated/Control” value does the source give for `NCCCCCC(=O)N1CCN(C(=O)CC2CCCCC2)CC1` [ENMD-1073, N′-(2-cyclohexylethanoyl)-N^4-(6-aminohexanoyl)piperazine] here?
A: Its value is 0.56.

Q: How did the “PAR-2 AP2 Signaling Treated/Control” value turn out when `CC(C)CNC(=O)[C@H]1CC[C@@H](NC(=O)CCCCCN)C1` [ENMD-1536, N-isobutyl-3S-(6-aminohexanamido)-cyclopentane-1R-carboxamide] was run?
A: The value was 0.42.

Q: `NCCCCCC(=O)Nc1cc(C(=O)NCC2CCCCC2)n[nH]1` [ENMD-1534, 5-(6-amino-hexanoylamino)-1H-pyrazole-3-carboxylic acid cyclohexylmethyl-amide] was tested. Which “PAR-2 AP2 Signaling Treated/Control” value did it give?
A: The value was 0.44.

Q: `CC(C)CNC(=O)c1cc(NC(=O)CCCCCN)[nH]n1` [ENMD-1533, 5-(6-Amino-hexanoylamino)-1H-pyrazole-3-carboxylic acid isobutyl-amide] was tested. Which “PAR-2 AP2 Signaling Treated/Control” value did it give?
A: The value was 0.68.

Q: How did the “PAR-2 AP2 Signaling Treated/Control” value turn out when `Cl.O=C(CC1CCCCC1)N1CCN(C(=O)C2CCCNC2)CC1` (stereo not drawn) [ENMD-1773, N1-2-cyclohexylethanoyl-N-4-piperidine-3-carbonyl-piperazine hydrochloride] was run?
A: Its value is 0.85.

Q: With `CC(C)COc1ccc(C(=O)NCCCN)cc1` [ENMD-1408, N-(3-aminopropyl)-4-isobutoxy-benzamide] as the compound, how does the “PAR-2 AP2 Signaling Treated/Control” value read?
A: The value was 0.35.

Q: Which “PAR-2 AP2 Signaling Treated/Control” value does the source give for `CC(C)CC(=O)N1CC(NC(=O)CCCCCN)C1` [ENMD-1515, N-[1-(3-methylbutanoyl)azetidin-3-yl]-6-aminohexanamide] here?
A: Its value is 0.65.

Q: For `O=C(NCCC1CCNCC1)c1cnc(NCC2CCCCC2)cn1` [ENMD-1572, 4-(piperidinethyl)-6-cyclohexanemethylamino-2-pyrazine amide], which “PAR-2 AP2 Signaling Treated/Control” value is on record?
A: Its value is 0.10.

Q: Which “PAR-2 AP2 Signaling Treated/Control” value does the source give for `CC(C)CNC(=O)c1ccc(-c2ccc(NC(=O)CCCCCN(C)C)cc2)cc1` [ENMD-1529, 4′-(6-Dimethylamino-hexanoylamino)-biphenyl-4-carboxylic acid isobutyl-amide] here?
A: The value was 0.35.

Same assay, conditions: peptides; AUC of calcium mobilization treated/control; initially screened at 1 mM compound

Q: For “L-Imid-K (Leu-[Imid]-Lys; reading uncertain; also: printed as L-Imid-K) [ENMD-1062]”, which “PAR-2 AP2 Signaling Treated/Control (T/C)” value is on record?
A: Its value is 0.94.

Q: How did the “PAR-2 AP2 Signaling Treated/Control (T/C)” value turn out when L-HyP-K (Leu-[Hyp]-Lys) [ENMD-1060] was run?
A: The value was 1.29.

Q: Which “PAR-2 AP2 Signaling Treated/Control (T/C)” value does the source give for LIGY [ENMD-1051] here?
A: The value was 0.83.

Q: For LIGM [ENMD-1064], which “PAR-2 AP2 Signaling Treated/Control (T/C)” value is on record?
A: Its value is 1.19.

Source: patent US20060063930A1, “Compositions and methods comprising proteinase activated receptor antagonists” (priority 2004, published 2006)
